Measurements reported in patent publication US20240083900A1, “PYRAZOLO[1,5-A]PYRAZINE DERIVATIVES AS BTK INHIBITORS” (BIOGEN MA INC., priority 2020, published 2024).

The compounds below were run against BTK (Homo sapiens (Human), UniProt Q06187) (assay: In Vitro BTK Kinase Assay: Btk-PolyGAT-LS Assay). Conditions: BTK enzyme 0.25 nM, ATP 10 μM, polyGAT 100 nM, 30 minutes incubation, TRF readout; read-out: IC50.
Chain of BTK (Q06187 whole entry): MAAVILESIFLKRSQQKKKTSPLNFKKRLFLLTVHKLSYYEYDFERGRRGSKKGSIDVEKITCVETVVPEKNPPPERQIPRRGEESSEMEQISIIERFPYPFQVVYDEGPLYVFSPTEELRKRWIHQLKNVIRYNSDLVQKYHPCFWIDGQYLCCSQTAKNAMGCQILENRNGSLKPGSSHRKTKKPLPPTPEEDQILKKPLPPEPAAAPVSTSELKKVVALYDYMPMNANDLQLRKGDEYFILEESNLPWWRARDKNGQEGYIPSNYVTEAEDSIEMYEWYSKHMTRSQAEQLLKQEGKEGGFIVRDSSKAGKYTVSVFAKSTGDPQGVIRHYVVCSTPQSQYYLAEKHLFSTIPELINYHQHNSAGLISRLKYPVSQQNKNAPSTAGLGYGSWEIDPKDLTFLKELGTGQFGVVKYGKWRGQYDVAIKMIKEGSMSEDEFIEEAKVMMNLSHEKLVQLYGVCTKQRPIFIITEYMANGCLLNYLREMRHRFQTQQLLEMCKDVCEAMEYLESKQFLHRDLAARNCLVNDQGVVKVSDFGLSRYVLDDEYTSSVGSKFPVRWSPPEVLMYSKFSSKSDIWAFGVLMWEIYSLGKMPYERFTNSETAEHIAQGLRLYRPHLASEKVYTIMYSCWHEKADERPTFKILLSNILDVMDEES
Type: biochemical
Procedure: The purpose of the BTK in vitro assay is to determine compound potency against BTK through the measurement of IC50. […] For a typical assay, a 24 μL aliquot of a ATP/peptide master mix (final concentration; ATP 10 μM, polyGAT 100 nM) in kinase buffer (10 mM Tris-HCl pH 7.5, 10 mM MgCl2, 200 μM Na3PO4, 5 mM DTT, 0.01% Triton X-100, and 0.2 mg/ml casein) is added to each well. […] The assay is incubated for 30 minutes before being stopped with 28 μL of a 50 mM EDTA solution. […] The plate is covered and incubated for 45 minutes at room temperature.
In the case of C=CC(=O)N(C)[C@@H]1C[C@](C)(Oc2nc(-c3cnn(C)c3)cn3nccc23)[C@@H]1C (single isomer, unassigned) [Example 105], the IC50 is reported as 10 to 1000 nM.
C=CC(=O)NCc1cccc(Oc2nc(-c3cnn(C)c3)cn3nccc23)c1 [Example 132, N-(3-((6-(1-methyl-1H-pyrazol-4-yl)pyrazolo[1,5-a]pyrazin-4-yl)oxy)benzyl)acrylamide] was tested, and the IC50 was 10 to 1000 nM.
C=CC(=O)N(C)CCCOc1nc(-c2cnn(C)c2)cn2nccc12 [Example 182, N-methyl-N-(3-((6-(1-methyl-1H-pyrazol-4-yl)pyrazolo[1,5-a]pyrazin-4-yl)oxy)propyl)acrylamide] was tested, and the IC50 was 10 to 1000 nM.
Compound C=CC(=O)N1CCC[C@H](Oc2nc(-c3cnn(C)c3)cc3nccn23)CC1 (single isomer, unassigned) [Example 38, (R)- or (S)-1-(4-((7-(1-methyl-1H-pyrazol-4-yl)imidazo[1,2-c]pyrimidin-5-yl)oxy)azepan-1-yl)prop-2-en-1-one] has an IC50 of 10 to 1000 nM.
C/C=C/C(=O)Nc1cc(Oc2nc(-c3cnn(C)c3)cn3nccc23)ccc1C [Example 131, (E)-N-(2-methyl-5-((6-(1-methyl-1H-pyrazol-4-yl)pyrazolo[1,5-a]pyrazin-4-yl)oxy)phenyl)but-2-enamide] gave an IC50 of 10 to 1000 nM.
C=CC(=O)N(C)[C@H]1C[C@@](C)(Oc2nc(-c3cn[nH]c3)cn3nccc23)C1 [Example 80, N-((1s,3s)-3-((6-(1H-pyrazol-4-yl)pyrazolo[1,5-a]pyrazin-4-yl)oxy)-3-methylcyclobutyl)-N-methylacrylamide] was tested, and the IC50 was less than 1 nM.
C=CC(=O)N1CCC[C@@H]2[C@H]1C[C@]2(C)Oc1nc(-c2cnn(C)c2)cn2nccc12 (single isomer, unassigned) [Example 112] was tested, and the IC50 was 10 to 1000 nM.
For CN(C(=O)CCl)[C@H]1CCC[C@@H](Oc2nc(-c3cnn(C)c3)cn3nccc23)C1 [Example 181, 2-chloro-N-methyl-N-((1S,3R)-3-((6-(1-methyl-1H-pyrazol-4-yl)pyrazolo[1,5-a]pyrazin-4-yl)oxy)cyclohexyl)acetamide], the IC50 was less than 1 nM.
C=CC(=O)N(C)[C@H]1C[C@@H](Oc2nc(-c3cnn(C)c3)cn3nc(N)cc23)C1 [Example 68, N-((cis)-3-((2-amino-6-(1-methyl-1H-pyrazol-4-yl)pyrazolo[1,5-a]pyrazin-4-yl)oxy)cyclobutyl)-N-methylacrylamide] showed an IC50 of less than 1 nM.
Compound C#CC(=O)N1CCC[C@@H](Oc2nc(-c3cnn(C)c3)cc3nccn23)CC1 (single isomer, unassigned) [Example 35, (S) or (R)-1-(4-((7-(1-methyl-1H-pyrazol-4-yl)imidazo[1,2-c]pyrimidin-5-yl)oxy)azepan-1-yl)prop-2-yn-1-one] has an IC50 of 1 to 10 nM.
CC#CC(=O)N[C@@H]1CCC[C@H](Oc2nc(-c3cnn(C)c3)cn3nccc23)C1 [Example 180, N-((1R,3S)-3-((6-(1-methyl-1H-pyrazol-4-yl)pyrazolo[1,5-a]pyrazin-4-yl)oxy)cyclohexyl)but-2-ynamide] was tested, and the IC50 was 10 to 1000 nM.
C#CC(=O)N1CCC(Oc2nc(-c3cnn(C)c3)cc3nccn23)CC1 [Example 49] showed an IC50 of 10 to 1000 nM.
Compound C=CS(=O)(=O)N1CCC[C@@H](Oc2nc(-c3cnn(C)c3)cc3nccn23)CC1 (single isomer, unassigned) [Example 36, (R)- or (S)-7-(1-methyl-1H-pyrazol-4-yl)-5-((1-(vinylsulfonyl)azepan-4-yl)oxy)imidazo[1,2-c]pyrimidine] has an IC50 of 1 to 10 nM.
Compound C=CC(=O)N1CCC[C@@H](COc2nc(-c3cnn(C)c3)cc3nccn23)C1 [Example 41] has an IC50 of 10 to 1000 nM.
Compound C=CC(=O)N1CCCC(Oc2nc(-c3cnn(C)c3)cn3ncc(Cl)c23)[C@H](F)C1 (mixture of isomers) [Example 203] has an IC50 of 10 to 1000 nM.
Compound Cc1c(NC(=O)/C=C/CN(C)C2CCC2)cccc1Oc1nc(-c2cnn(C)c2)cn2nccc12 [Example 135, (E)-4-(cyclobutyl(methyl)amino)-N-(2-methyl-3-((6-(1-methyl-1H-pyrazol-4-yl)pyrazolo[1,5-a]pyrazin-4-yl)oxy)phenyl)but-2-enamide] has an IC50 of 10 to 1000 nM.
With C=CC(=O)N1CCCC(Oc2nc(-c3cn(C)nc3C)cn3nccc23)CC1 (single isomer, unassigned) [Example 69 E1, 1-[-4-[6-(1,3-dimethylpyrazol-4-yl)pyrazolo[1,5-a]pyrazin-4-yl]oxyazepan-1-yl]prop-2-en-1-one] the IC50 was 1 to 10 nM.
C=CC(=O)N(C)CC(C)CCOc1nc(-c2cnn(C)c2)cn2nccc12 (stereo not drawn) [Example 184, N-methyl-N-(2-methyl-4-((6-(1-methyl-1H-pyrazol-4-yl)pyrazolo[1,5-a]pyrazin-4-yl)oxy)butyl)acrylamide] showed an IC50 of 10 to 1000 nM.
With Cn1cc(-c2cc3nccn3c(O[C@]3(C)C[C@H](N(C)C(=O)/C=C/C(F)(F)F)C3)n2)cn1 [Example 201, (E)-4,4,4-trifluoro-N-methyl-N-((1s,3s)-3-methyl-3-((7-(1-methyl-1H-pyrazol-4-yl)imidazo[1,2-c]pyrimidin-5-yl)oxy)cyclobutyl)but-2-enamide] the IC50 was 1 to 10 nM.
CC#CC(=O)N[C@H]1C[C@@](C)(Oc2nc(-c3cnn(C(F)(F)F)c3)cn3ncc(C)c23)C1 [Example 157, Cis N-(3-methyl-3-((3-methyl-6-(1-(trifluoromethyl)-1H-pyrazol-4-yl)pyrazolo[1,5-a]pyrazin-4-yl)oxy)cyclobutyl)but-2-ynamide] gave an IC50 of 1 to 10 nM.
Cn1cc(-c2cn3nccc3c(O[C@H]3C[C@H](N(C)C(=O)/C=C/CCl)C3)n2)cn1 [Example 227, (E)-4-chloro-N-methyl-N-((trans)-3-((6-(1-methyl-1H-pyrazol-4-yl)pyrazolo[1,5-a]pyrazin-4-yl)oxy)cyclobutyl)but-2-enamide] gave an IC50 of less than 1 nM.
In the case of C=CC(=O)NC(C)c1cccc(Oc2nc(-c3cnn(C)c3)cn3nccc23)c1C (stereo not drawn) [Example 137, N-(1-(2-methyl-3-((6-(1-methyl-1H-pyrazol-4-yl)pyrazolo[1,5-a]pyrazin-4-yl)oxy)phenyl)ethyl)acrylamide], the IC50 is reported as 10 to 1000 nM.
With C=CC(=O)N1CCC[C@@H](Oc2nc(-c3csc(C)n3)cn3nccc23)CC1 [Example 76, (R)-1-(4-((6-(2-methylthiazol-4-yl)pyrazolo[1,5-a]pyrazin-4-yl)oxy)azepan-1-yl)prop-2-en-1-one] the IC50 was 1 to 10 nM.
Work on C[C@@H]1O[C@H]1C(=O)N1CC[C@H]2[C@@H]1C[C@@]2(C)Oc1nc(-c2cnn(C)c2)cn2nccc12 (single isomer, unassigned) [Example 194] yielded an IC50 of 10 to 1000 nM.
Work on C=CC(=O)N1CCC[C@@H](Oc2nc(-c3cnn(C)c3)cc3nccn23)C1 [Example 45] yielded an IC50 of 10 to 1000 nM.
C=CC(=O)N1CC[C@]2(CC[C@H](Oc3nc(-c4cnn(C)c4)cn4nccc34)C2)C1 (single isomer, unassigned) [Example 204] was tested, and the IC50 was 10 to 1000 nM.
C=CC(=O)N(C)[C@H]1C[C@@H](Oc2nc(-c3cnn([C@H]4CCOC4)c3)cn3nccc23)C1 [Example 156, N-methyl-N-((cis)-3-((6-(1-((S)-tetrahydrofuran-3-yl)-1H-pyrazol-4-yl)pyrazolo[1,5-a]pyrazin-4-yl)oxy)cyclobutyl)acrylamide] was tested, and the IC50 was less than 1 nM.
In the case of CC#CC(=O)N1CCC[C@H](COc2nc(-c3cnn(C)c3)cc3nccn23)C1 [Example 47], the IC50 is reported as 10 to 1000 nM.
C=CC(=O)N1C[C@@H]2C[C@H](Oc3nc(-c4cnn(C)c4)cn4ncc(C)c34)[C@@H]2C1 [Example 198, 1-((1R,5S,6S)-6-((3-methyl-6-(1-methyl-1H-pyrazol-4-yl)pyrazolo[1,5-a]pyrazin-4-yl)oxy)-3-azabicyclo[3.2.0]heptan-3-yl)prop-2-en-1-one] was tested, and the IC50 was 10 to 1000 nM.
Work on C=CC(=O)N(C1CC1)[C@H]1C[C@H](Oc2nc(-c3cnn(C)c3)cn3nccc23)C1 [Example 102, N-cyclopropyl-N-((trans)-3-((6-(1-methyl-1H-pyrazol-4-yl)pyrazolo[1,5-a]pyrazin-4-yl)oxy)cyclobutyl)acrylamide] yielded an IC50 of 1 to 10 nM.
Work on C=CC(=O)NC1CN(c2cc(-c3cnn(C)c3)cn3nccc23)CC12CC2 (stereo not drawn) [Example 87, N-(5-(6-(1-methyl-1H-pyrazol-4-yl)pyrazolo[1,5-a]pyridin-4-yl)-5-azaspiro[2.4]heptan-7-yl)acrylamide] yielded an IC50 of 10 to 1000 nM.
Compound C=CC(=O)N(C)[C@H]1C[C@@H](Oc2nc(-c3cnn([C@@H]4CCOC4)c3)cn3nccc23)C1 [Example 155, N-methyl-N-((cis)-3-((6-(1-((R)-tetrahydrofuran-3-yl)-1H-pyrazol-4-yl)pyrazolo[1,5-a]pyrazin-4-yl)oxy)cyclobutyl)acrylamide] has an IC50 of less than 1 nM.
CC#CC(=O)Nc1cncc(Oc2nc(-c3cnn(C)c3)cn3nccc23)c1 [Example 138, N-(5-((6-(1-methyl-1H-pyrazol-4-yl)pyrazolo[1,5-a]pyrazin-4-yl)oxy)pyridin-3-yl)but-2-ynamide] showed an IC50 of 1 to 10 nM.
Work on CC#CC(=O)N(C)[C@H]1C[C@@H](Oc2nc(-c3cnn(C)c3)c(F)n3nccc23)C1 [Example 222, N-((cis)-3-((7-fluoro-6-(1-methyl-1H-pyrazol-4-yl)pyrazolo[1,5-a]pyrazin-4-yl)oxy)cyclobutyl)-N-methylbut-2-ynamide] yielded an IC50 of 10 to 1000 nM.
With C=CC(=O)N1CC(C)(C)OC(C)(COc2nc(-c3cnn(C)c3)cn3nccc23)C1 (single isomer, unassigned) [Example 119, 1-(2,2,6-trimethyl-6-(((6-(1-methyl-1H-pyrazol-4-yl)pyrazolo[1,5-a]pyrazin-4-yl)oxy)methyl)morpholino)prop-2-en-1-one] the IC50 was 10 to 1000 nM.
Work on C=CC(=O)N1C[C@H](COc2cc(-c3cnn(C)c3)cn3nccc23)OC(C)(C)C1 [Example 83, (R)-1-(2,2-dimethyl-6-(((6-(1-methyl-1H-pyrazol-4-yl)pyrazolo[1,5-a]pyridin-4-yl)oxy)methyl)morpholino)prop-2-en-1-one] yielded an IC50 of 1 to 10 nM.
